Source: US6326395A, “Antifungal activity of dicationic molecules” (priority 1999, dated 2001)
≈ marks a conversion by molar mass, not a printed value. Counter-ions that a name gives are not always drawn. Like-named read-outs stand apart in the source and are kept apart here.

How the values were obtained:
Candida albicans = test: in vitro antifungal susceptibility testing (MIC, MFC; broth macrodilution), Tables 1-7; assay type: cell-based; conditions: for MIC: read-out: MIC80 (Minimum inhibitory concentration 80%); for MFC: read-out: MFC (Minimum fungicidal concentration)
Text: (§1) The fungi that were employed included two reference strains, C. neoformans var. neoformans H99 and C. albicans A39 and the following clinical isolates: (1) two strains of fluconazole-resistant C. neoformans var. neoformans (135.95 and 114.96); (2) two strains of C. neoformans var. gattii (119.95 and 114.95); (3) two strains of fluconazole-resistant C. albicans (102.96 and 103.96); and (4) one strain each of Torulopsis glabrata (142.91), Candida parapsilosis (111.96), Candida krusei (132.91), C. tropicalis (110.96), Candida lusitaniae (111.92), Fusarium solani (152.89), Aspergillus fumigatus (168.95), and Aspergillus flavus (112.96). Antifungal susceptibility testing was performed using an RPMI-1640 medium (Sigma Chemical Co., St. Louis, Mo.) with glutamine, without sodium bicarbonate, and buffered at pH 7.0 with 0.165 M morpholine-propanesulfonic acid (MOPS).
(§2) In vitro susceptibility testing in the form of Minimum Inhibitory Concentration (MIC) experiments were performed using the broth macrodilution method according to the recommendations of the National Committee for Clinical Laboratory Standards (see 1995 manual). The only difference compared to the standardized procedure was the choice of drug dilutions ranging from 100 to 0.09 μg/ml. Briefly, this procedure specifies an inoculum grown at 35° C. and adjusted to a concentration of 0.5-2.5×10^3 CFU/ml with an incubation of the test performed at 35° C. and reading at 48 hours for all yeasts except for C. neoformans which is interpreted at 72 hr.
(§3) Minimum Fungicidal Concentration (MFC) experiments were adapted from a method by McGinnis (McGinnis, M. R., (1980) "Susceptibility testing and bioassay procedure", p. 431, Academic Press, Inc., New York). Briefly, 10 μl aliquots from tubes with growth inhibition were plated onto Sabouraud agar plates.
(§4) The fungi that were employed included two quality control reference strains, C. neoformans var. neoformansH99 and C. albicans A39 and the following clinical isolates: (1) four strains of C. neoformans var. neoformans (167.95; 135.95; 114.96; and 133.95) of which three were fluconazole-resistant>64 μg/ml (135.95; 114.96; and 133.95); (2) two strains of C. neoformans var. gattii (119.95 and 114.95); (3) two strains of fluconazole-resistant>64 μg/ml C. albicans (102.96 and 103.96); and (4) one strain each of C. glabrata (142.91), Candida parapsilosis (111.96), Candida krusei (132.91), C. tropicalis (110.96), Candida lusitaniae (111.92), Fusarium solani (152.89), Aspergillus fumigatus (168.95), Rhizopus arrhizus (117.89), Paecilomyces lilacinus (137.90), and Aspergillus flavus (112.96). Antifungal susceptibility testing was performed using an RPMI-1640 medium (Sigma Chemical Co., St. Louis, Mo.) with glutamine, without sodium bicarbonate, and buffered at pH 7.0 with 0.165 M morpholinepropanesulfonic acid (MOPS).
(§5) Minimum Fungicidal Concentration (MFC) experiments were adapted from a method by McGinnis (McGinnis, M. R., (1980) "Susceptibility testing and bioassay procedure", p.431, Academic Press, Inc., New York). Briefly, 10 μl aliquots from tubes with growth inhibition were plated onto Sabouraud agar plates.

Cryptococcus neoformans = test: as above; assay type: cell-based; conditions: for MIC: read-out: MIC80 (Minimum inhibitory concentration 80%); for MFC: read-out: MFC (Minimum fungicidal concentration)
Text: as §1, §2, §3, §4, §5

[1] = Tables 2-7, three or fewer colonies

| SMILES | MIC (Candida albicans; 35° C., reading at 48 hours) | MFC (Candida albicans; three or fewer colonies) | MIC (Cryptococcus neoformans; 35° C., 72 hr) | MFC (Cryptococcus neoformans; Table 1, three or fewer colonies) | MFC (Cryptococcus neoformans; [1]) | MIC (Candida albicans; 48 h) | MIC (Cryptococcus neoformans; 72 h) | MFC (Candida albicans) | MFC (Cryptococcus neoformans) |
| --- | --- | --- | --- | --- | --- | --- | --- | --- | --- |
| N=C(N)c1ccc(NCCCCCCNc2ccc(C(=N)N)cc2N)c(N)c1 [Compound 20] | 0.78 µg/mL (≈ 2.04 µM) | 3.12 µg/mL (≈ 8.16 µM) | 0.78 µg/mL (≈ 2.04 µM) | 3.12 µg/mL (≈ 8.16 µM) | – | – | – | – | – |
| N=C(N)c1ccc(OCCCC(O)COc2ccc(C(=N)N)cc2)cc1 (stereo not shown) [Compound 21] | 6.25 µg/mL (≈ 17.5 µM) | 12.5 µg/mL (≈ 35.1 µM) | 6.25 µg/mL (≈ 17.5 µM) | – | 12.5 µg/mL (≈ 35.1 µM) | – | – | – | – |
| N=C(N)c1ccc(OCCC(O)CCOc2ccc(C(=N)N)cc2)cc1 (stereo not shown) [Compound 22] | 12.5 µg/mL (≈ 35.1 µM) | 12.5 µg/mL (≈ 35.1 µM) | 12.5 µg/mL (≈ 35.1 µM) | – | 12.5 µg/mL (≈ 35.1 µM) | – | – | – | – |
| CCCNC(=N)c1ccc(-c2ccc(-c3ccc(C(=N)NCCC)cc3)o2)cc1 [Compound 24] | 12.5 µg/mL (≈ 32.2 µM) | 12.5 µg/mL (≈ 32.2 µM) | 1.56 µg/mL (≈ 4.02 µM) | – | 6.25 µg/mL (≈ 16.1 µM) | – | – | – | – |
| CC(C)NC(=N)c1ccc(-c2ccc(-c3ccc(C(=N)NC(C)C)cc3)o2)cc1 [Compound 25] | 25 µg/mL (≈ 64.3 µM) | 50 µg/mL (≈ 129 µM) | 6.25 µg/mL (≈ 16.1 µM) | – | 50 µg/mL (≈ 129 µM) | – | – | – | – |
| CCC(CC)NC(=N)c1ccc(-c2ccc(-c3ccc(C(=N)NC(CC)CC)cc3)o2)cc1 [Compound 26] | 100 µg/mL (≈ 225 µM) | 100 µg/mL (≈ 225 µM) | 12.5 µg/mL (≈ 28.1 µM) | – | 12.5 µg/mL (≈ 28.1 µM) | – | – | – | – |
| CC(C)CNC(=N)c1ccc(-c2ccc(-c3ccc(C(=N)NCC(C)C)cc3)o2)cc1 [Compound 27] | 12.5 µg/mL (≈ 30 µM) | – | 3.12 µg/mL (≈ 7.49 µM) | – | 12.5 µg/mL (≈ 30 µM) | – | – | – | – |
| N=C(N)c1ccc2nc(Cc3nc4ccc(C(=N)N)cc4[nH]3)[nH]c2c1 [Compound 28] | – | – | – | – | – | > 100 µg/mL | > 100 µg/mL | – | – |
| c1cc2nc(Cc3nc4ccc(C5=NCCN5)cc4[nH]3)[nH]c2cc1C1=NCCN1 [Compound 29] | > 100 µg/mL | > 100 µg/mL | 100 µg/mL (≈ 260 µM) | – | > 100 µg/mL | – | – | – | – |
| N=C(N)c1ccc2nc(CCc3nc4ccc(C(=N)N)cc4[nH]3)[nH]c2c1 [Compound 30] | 12.5 µg/mL (≈ 36.1 µM) | 50 µg/mL (≈ 144 µM) | 6.25 µg/mL (≈ 18 µM) | – | 25 µg/mL (≈ 72.2 µM) | – | – | – | – |
| N=C(N)c1ccc2nc(C=Cc3nc4ccc(C(=N)N)cc4[nH]3)[nH]c2c1 [Compound 32] | 6.25 µg/mL (≈ 18.1 µM) | 12.5 µg/mL (≈ 36.3 µM) | 1.56 µg/mL (≈ 4.53 µM) | – | 3.12 µg/mL (≈ 9.06 µM) | – | – | – | – |
| CN(C)CCCNC(=O)c1ccc(-c2ccc(-c3ccc(C(=O)NCCCN(C)C)cc3)o2)cc1 [Compound 35] | > 100 µg/mL | – | > 100 µg/mL | – | – | – | – | – | – |
| CN(CCCNC(=O)c1ccc(-c2ccc(-c3ccc(C(=O)NCCCN(C)c4ccccc4)cc3)o2)cc1)c1ccccc1 [Compound 36] | > 100 µg/mL | – | > 100 µg/mL | – | – | – | – | – | – |
| CN(C)CCCN(C)C(=O)c1ccc(-c2ccc(-c3ccc(C(=O)N(C)CCCN(C)C)cc3)o2)cc1 [Compound 37] | > 100 µg/mL | – | > 110 µg/mL | – | – | – | – | – | – |
| N=C(N)c1cccc(-c2ccc(-c3cccc(C(=N)N)c3)o2)c1 [Compound 38] | 50 µg/mL (≈ 164 µM) | 100 µg/mL (≈ 329 µM) | 3.12 µg/mL (≈ 10.3 µM) | – | 25 µg/mL (≈ 82.1 µM) | – | – | – | – |
| CC(C)NC(=N)c1cccc(-c2ccc(-c3cccc(C(=N)NC(C)C)c3)o2)c1 [Compound 40] | 100 µg/mL (≈ 257 µM) | > 100 µg/mL | 6.25 µg/mL (≈ 16.1 µM) | – | 6.25 µg/mL (≈ 16.1 µM) | – | – | – | – |
| CN(C)CCNC(=N)c1cccc(-c2ccc(-c3cccc(C(=N)NCCN(C)C)c3)o2)c1 [Compound 41] | > 100 µg/mL | – | 12.5 µg/mL (≈ 28 µM) | – | 50 µg/mL (≈ 112 µM) | – | – | – | – |
| N=C(N)c1ccc2nc(-c3ccc(-c4nc5ccc(C(=N)N)cc5[nH]4)cc3)[nH]c2c1 [Compound 47] | > 100 µg/mL | – | 0.39 µg/mL (≈ 0.989 µM) | – | 0.39 µg/mL (≈ 0.989 µM) | – | – | – | – |
| c1cc2nc(-c3ccc(-c4nc5ccc(C6=NCCN6)cc5[nH]4)cc3)[nH]c2cc1C1=NCCN1 [Compound 48] | 0.78 µg/mL (≈ 1.75 µM) | 6.25 µg/mL (≈ 14 µM) | 0.78 µg/mL (≈ 1.75 µM) | – | 1.56 µg/mL (≈ 3.49 µM) | – | – | – | – |
| c1cc2nc(-c3ccc(-c4nc5ccc(C6=NCCCN6)cc5[nH]4)cc3)[nH]c2cc1C1=NCCCN1 [Compound 49] | 1.56 µg/mL (≈ 3.29 µM) | 3.12 µg/mL (≈ 6.57 µM) | 0.78 µg/mL (≈ 1.64 µM) | – | 1.56 µg/mL (≈ 3.29 µM) | – | – | – | – |
| Cc1cc(-c2nc3ccc(C(=N)N)cc3[nH]2)c(C)cc1-c1nc2ccc(C(=N)N)cc2[nH]1 [Compound 50] | 25 µg/mL (≈ 59.2 µM) | 100 µg/mL (≈ 237 µM) | 25 µg/mL (≈ 59.2 µM) | – | 25 µg/mL (≈ 59.2 µM) | – | – | – | – |
| CC(C)NC(=N)c1ccc2nc(-c3ccc(CCc4ccc(-c5nc6ccc(C(=N)NC(C)C)cc6[nH]5)cc4)cc3)[nH]c2c1 [Compound 53, 4,4'-Bis[2-(5-N-isopropylamidino)benzimidazoyl]-1,2-diphenylethane hydrochloride] | 1.56 µg/mL | 6.25 µg/mL | 0.39 µg/mL | – | 0.78 µg/mL | – | – | – | – |
| N=C(NC1CCCC1)c1ccc2nc(-c3ccc(-c4ccc(-c5ccc(-c6nc7ccc(C(=N)NC8CCCC8)cc7[nH]6)cc5)o4)cc3)[nH]c2c1 [Compound 54, 4,4'-Bis[2-(5-N-cyclopentylamidino)benzimidazoyl]-2,5-diphenylfuran hydrochloride] | 1.56 µg/mL | 1.56 µg/mL | 1.56 µg/mL | – | 6.25 µg/mL | – | – | – | – |
| N=C(N)c1ccc2nc(-c3ccc4oc(-c5nc6ccc(C(=N)N)cc6[nH]5)cc4c3)[nH]c2c1 [Compound 55, 2,5-Bis[2-(5-amidino)benzimidazoyl]benzo[b]furan hydrochloride] | 0.39 µg/mL | 0.78 µg/mL | 0.19 µg/mL | – | 0.19 µg/mL | – | – | – | – |
| N=C(NC1CCCC1)c1ccc2nc(-c3ccc4oc(-c5nc6ccc(C(=N)NC7CCCC7)cc6[nH]5)cc4c3)[nH]c2c1 [Compound 56, 2,5-Bis[2-(5-N-cyclopentylamidino)benzimidazoyl]benzo[b]furan hydrochloride] | 0.78 µg/mL | 0.78 µg/mL | 0.78 µg/mL | – | 0.78 µg/mL | – | – | – | – |
| CN1CCN(c2ccc3nc(-c4ccc5nc(-c6ccc(O)cc6)[nH]c5c4)[nH]c3c2)CC1 [Compound 58] | – | – | – | – | – | 25 µg/mL (≈ 58.9 µM) | 100 µg/mL (≈ 236 µM) | 50 µg/mL (≈ 118 µM) | > 100 µg/mL |
| COc1ccc(-c2nc3ccc(C4=NCCN4)cc3[nH]2)cc1 [Compound 59] | 25 µg/mL (≈ 85.5 µM) | – | 50 µg/mL (≈ 171 µM) | – | 100 µg/mL (≈ 342 µM) | – | – | – | – |
| N=C(N)c1ccc(-c2nc3ccc(C(=N)N)cc3[nH]2)cc1 [Compound 60] | 100 µg/mL (≈ 359 µM) | > 100 µg/mL | 25 µg/mL (≈ 89.8 µM) | – | 50 µg/mL (≈ 180 µM) | – | – | – | – |
| N=C(N)c1ccc2nc(-c3ccc(O)cc3)[nH]c2c1 [Compound 61] | > 100 µg/mL | – | > 100 µg/mL | – | > 100 µg/mL | – | – | – | – |
